Laboratory results from PubChem BioAssay AID248 (DTP/NCI, 2004).
Where “and” joins values, the source holds several entries; their conditions need not be identical. Identical values can stand only once. Inconclusive results and toxic doses are left out. Rule as the data show it: active = T/C of 150% or more; inactive = T/C below 125%.

Test system: L1210 leukemia ip in BDF1 mice, survival T/C
Assay: NCI In Vivo Anticancer Drug Screen. Data for tumor model L1210 Leukemia (intraperitoneal) in B6D2F1 (BDF1) mice
Conditions: endpoint: mean survival time, higher = longer survival
Outline: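 Transplantable tumor model; survival measured in treated vs vehicle control mice. Value = treated/control.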

[1] = dose: 100.0 mg/kg/injection, schedule: Q01DX009 (ip), vehicle: Klucel (hydroxypropylcellulose) (HPC)
[2] = dose: 100.0 mg/kg/injection, schedule: Q04DX003 (ip), vehicle: Klucel (hydroxypropylcellulose) (HPC)
[3] = dose: 200.0 mg/kg/injection, schedule: Q01DX009 (ip), vehicle: Klucel (hydroxypropylcellulose) (HPC)
[4] = dose: 200.0 mg/kg/injection, schedule: Q04DX003 (ip), vehicle: Klucel (hydroxypropylcellulose) (HPC)
[5] = dose: 400.0 mg/kg/injection, schedule: Q01DX009 (ip), vehicle: Klucel (hydroxypropylcellulose) (HPC)
[6] = dose: 400.0 mg/kg/injection, schedule: Q04DX003 (ip), vehicle: Klucel (hydroxypropylcellulose) (HPC)
[7] = dose: 25.0 mg/kg/injection, schedule: Q01DX009 (ip), vehicle: Klucel (hydroxypropylcellulose) (HPC)
[8] = dose: 50.0 mg/kg/injection, schedule: Q01DX009 (ip), vehicle: Klucel (hydroxypropylcellulose) (HPC)

Measured: T/C

Cn1cnc([N+](=O)[O-])c1[Se]c1ncnc2c1c(C#N)cn2C1OC(CO)C(O)C1O (centres undefined)
inactive: dose: 6.25 mg/kg/injection, schedule: Q01DX009 (ip), vehicle: saline 111 % of control | dose: 12.5 mg/kg/injection, schedule: Q01DX005 (ip), vehicle: saline 95 % of control | dose: 12.5 mg/kg/injection, schedule: Q01DX009 (ip), vehicle: saline 113 % of control | dose: 15.0 mg/kg/injection, schedule: Q01DX009 (ip), vehicle: saline 103 % of control | dose: 25.0 mg/kg/injection, schedule: Q01DX005 (ip), vehicle: saline 111 % of control | dose: 25.0 mg/kg/injection, schedule: Q01DX009 (ip), vehicle: saline 108 % of control and 117 % of control | dose: 42.0 mg/kg/injection, schedule: Q01DX009 (ip), vehicle: saline 110 % of control

CN(C)c1ccc(/C=N/N=C(N)N)cc1
inactive: dose: 15.0 mg/kg/injection, schedule: Q01DX Z (ip), vehicle: saline 89 % of control | dose: 30.0 mg/kg/injection, schedule: Q01DX Z (ip), vehicle: saline 92 % of control | dose: 30.0 mg/kg/injection, schedule: Q01DX Z (oral), vehicle: other 100 % of control | dose: 60.0 mg/kg/injection, schedule: Q01DX Z (ip), vehicle: saline 100 % of control | dose: 60.0 mg/kg/injection, schedule: Q01DX Z (oral), vehicle: other 97 % of control | dose: 120.0 mg/kg/injection, schedule: Q01DX Z (oral), vehicle: other 109 % of control

ClCCCCCCCCCCCl
inactive: [1] 94 % of control and 97 % of control | [2] 97 % of control | [3] 94 % of control and 102 % of control | [4] 92 % of control | [5] 92 % of control | [6] 99 % of control

O=C(NC(CSC(=O)c1ccccc1)C(=O)O)OCc1ccccc1 (centres undefined)
inactive: [1] 104 % of control | [2] 101 % of control | [3] 93 % of control | [4] 95 % of control | [6] 95 % of control

C[Si](C)(C)OSc1ccccc1[N+](=O)[O-]
inactive: dose: 12.5 mg/kg/injection, schedule: Q01DX009 (ip), vehicle: Klucel (hydroxypropylcellulose) (HPC) 93 % of control | [7] 92 % of control | [8] 93 % of control | [1] 104 % of control | [3] 95 % of control | [5] 97 % of control

CS/C(N)=N\S(=O)(=O)c1ccc(NC(C)=O)cc1
inactive: dose: 100.0 mg/kg/injection, schedule: Q04DX003 (ip), vehicle: saline with Tween-80 93 % of control | dose: 200.0 mg/kg/injection, schedule: Q04DX003 (ip), vehicle: saline with Tween-80 90 % of control | dose: 400.0 mg/kg/injection, schedule: Q04DX003 (ip), vehicle: saline with Tween-80 96 % of control

CC1(C)C(=NNc2ccccc2)C(C)(C)C1=NNc1ccccc1
inactive: [7] 93 % of control | [1] 93 % of control and 88 % of control | [2] 97 % of control | [4] 96 % of control | [6] 97 % of control

CC(C)(C)c1cc(C#N)cc(C(C)(C)C)c1O
inactive: [8] 96 % of control | [1] 103 % of control | [3] 96 % of control

O=C(Oc1ccccc1[N+](=O)[O-])c1ccccc1
inactive: dose: 100.0 mg/kg/injection, schedule: Q04DX003 (ip), vehicle: other 98 % of control | dose: 200.0 mg/kg/injection, schedule: Q04DX003 (ip), vehicle: other 118 % of control | dose: 400.0 mg/kg/injection, schedule: Q04DX003 (ip), vehicle: other 93 % of control

COc1ccc([N+](=O)[O-])cc1CNCCCl
inactive: dose: 100.0 mg/kg/injection, schedule: Q01DX001 (ip), vehicle: Klucel (hydroxypropylcellulose) (HPC) 100 % of control | dose: 400.0 mg/kg/injection, schedule: Q01DX001 (ip), vehicle: Klucel (hydroxypropylcellulose) (HPC) 94 % of control

Cc1ccc(S(=O)(=O)NC(=O)OC/C=C/c2ccccc2)cc1
inactive: dose: 100.0 mg/kg/injection, schedule: Q01DX009 (ip), vehicle: alcohol 96 % of control | dose: 200.0 mg/kg/injection, schedule: Q01DX009 (ip), vehicle: alcohol 94 % of control | dose: 400.0 mg/kg/injection, schedule: Q01DX009 (ip), vehicle: alcohol 110 % of control
